According to patent US20150105252A1, “SUBSTITUTED PYRAZOLES AS HERBICIDES” (E I DU PONT DE NEMOURS AND COMPANY, priority 2013, published 2015):

How the values were obtained:
[1] = tested on: windgrass; assay: Test D postemergence; format: in vivo, Apera spica-venti; details: scale 0 to 100
Method in brief: (§1)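 Visual 0-100 rating (100 = complete control) against untreated plants, made 14 to 21 days after treatment in a controlled environment. Compounds, formulated with surfactant in non-phytotoxic solvent, were applied either to seeds just sown in silt loam or to 1- to 4-leaf plants (2 to 18 cm) grown in peat-based medium.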

[2] = tested on: mustard, wild; assay: Test D preemergence; format: in vivo, Sinapis arvensis; details: for Plant response rating, Mustard, Wild: Preemergence, scale 0 to 100
Method in brief: as §1

[3] = tested on: galium; assay: Test D preemergence; format: in vivo, Galium aparine; details: Preemergence, scale 0 to 100
Text: (§2) Seeds of plant species selected from bluegrass (annual bluegrass, Poa annua), blackgrass (Alopecurus myosuroides), canarygrass (littleseed canarygrass, Phalaris minor), chickweed (common chickweed, Stellaria media), galium (catchweed bedstraw, Galium aparine), bromegrass, downy (downy bromegrass, Bromus tectorum), field poppy (Papaver rhoeas), field violet (Viola arvensis), foxtail, green (green foxtail, Setaria viridis), deadnettle (henbit deadnettle, Lamium amplexicaule), ryegrass, Italian (Italian ryegrass, Lolium multiflorum), kochia (Kochia scoparia), lambsquarters (Chenopodium album), oilseed rape (Brassica napus), pigweed (redroot pigweed, Amaranthus retroflexus), chamomile (scentless chamomile, Matricaria inodora), speedwell (bird's-eye speedwell, Veronica persica), barley, spring (spring barley, Hordeum vulgare), wheat, spring (spring wheat, Triticum aestivum), buckwheat, wild (wild buckwheat, Polygonum convolvulus), mustard, wild (wild mustard, Sinapis arvensis), oat, wild (wild oat, Avena fatua), radish, wild (wild radish, Raphanus raphanistrum), windgrass (Apera spica-venti), Russian thistle (Salsola kali), barley, winter (winter barley, Hordeum vulgare), and wheat, winter (winter wheat, Triticum aestivum) were planted into a silt loam soil and treated preemergence with test chemicals formulated in a non-phytotoxic solvent mixture which included a surfactant.
(§3) At the same time, these species were planted in pots containing Redi-Earth® planting medium (Scotts Company, 14111 Scottslawn Road, Marysville, Ohio 43041) comprising spaghnum peat moss, vermiculite, wetting agent and starter nutrients and treated with postemergence applications of the test chemicals formulated in the same manner. Plants ranged in height from 2 to 18 cm (1- to 4-leaf stage). Treated plants and controls were maintained in a controlled growth environment for 14 to 21 days after which time all species were compared to controls and visually evaluated. Plant response ratings, summarized in Table D, are based on a scale of 0 to 100 where 0 is no effect and 100 is complete control. A dash (-) response means no test result.

[4] = tested on: chickweed; assay: Test D preemergence; format: in vivo, Stellaria media; details: for Plant response rating, Chickweed: Preemergence, scale 0 to 100
Method in brief: as §1

[5] = tested on: blackgrass; assay: Test D preemergence; format: in vivo, Alopecurus myosuroides; details: for Plant response rating, Blackgrass: Preemergence, scale 0 to 100
Text: as §2, §3

[6] = tested on: oilseed rape; assay: Test D preemergence; format: in vivo, Brassica napus; details: for Plant response rating, Oilseed Rape: Preemergence, scale 0 to 100
Text: as §2, §3

[7] = tested on: galium; assay: Test D postemergence; format: in vivo, Galium aparine; details: scale 0 to 100
Text: as §2, §3

[8] = tested on: chickweed; assay: Test D postemergence; format: in vivo, Stellaria media; details: scale 0 to 100
Text: as §2, §3

[9] = tested on: bluegrass; assay: Test D postemergence; format: in vivo, Poa annua; details: scale 0 to 100
Text: as §2, §3

[10] = tested on: field poppy; assay: Test D preemergence; format: in vivo, Papaver rhoeas; details: for Plant response rating, Field Poppy: Preemergence, scale 0 to 100
Text: as §2, §3

[11] = tested on: wheat, winter; assay: Test D postemergence; format: in vivo, Triticum aestivum; details: scale 0 to 100
Method in brief: as §1

[12] = tested on: wheat, spring; assay: Test D postemergence; format: in vivo, Triticum aestivum; details: scale 0 to 100
Method in brief: as §1

[13] = tested on: foxtail, green; assay: Test D postemergence; format: in vivo, Setaria viridis; details: scale 0 to 100
Text: as §2, §3

[14] = tested on: ryegrass, Italian; assay: Test D preemergence; format: in vivo, Lolium multiflorum; details: for Plant response rating, Ryegrass, Italian: Preemergence, scale 0 to 100
Text: as §2, §3

[15] = tested on: bromegrass, downy; assay: Test D postemergence; format: in vivo, Bromus tectorum; details: scale 0 to 100
Method in brief: as §1

[16] = tested on: bluegrass; assay: Test D preemergence; format: in vivo, Poa annua; details: for Plant response rating, Bluegrass: Preemergence, scale 0 to 100
Text: as §2, §3

[17] = tested on: blackgrass; assay: Test D postemergence; format: in vivo, Alopecurus myosuroides; details: scale 0 to 100
Text: as §2, §3

[18] = tested on: field poppy; assay: Test D postemergence; format: in vivo, Papaver rhoeas; details: scale 0 to 100
Method in brief: as §1

[19] = tested on: oilseed rape; assay: Test D postemergence; format: in vivo, Brassica napus; details: scale 0 to 100
Text: as §2, §3

[20] = tested on: oat, wild; assay: Test D preemergence; format: in vivo, Avena fatua; details: for Plant response rating, Oat, Wild: Preemergence, scale 0 to 100
Method in brief: as §1

[21] = 16 g ai/ha, taken as preemergence

SMILES: O=C(NC1CC1)c1cc(CCF)n(Cc2ccnc(C(F)(F)F)c2)n1 [Compound 176]
- Plant response rating, Windgrass ([1]; Postemergence, 16 g ai/ha): 5
- Windgrass plant response rating ([1]; Postemergence, 31 g ai/ha): 15
- Windgrass plant response rating ([1]; Postemergence, 125 g ai/ha): 25
- Windgrass plant response rating ([1]; postemergence, 62 g ai/ha): 15
- Plant response rating (scale 0 to 100), Mustard, Wild [2, 21]: 10
- Plant response rating, Mustard, Wild ([2]; 62 g ai/ha): 90
- Plant response rating, Mustard, Wild ([2]; 125 g ai/ha): 100
- Plant response rating, Galium ([3]; 62 g ai/ha): 60
- Plant response rating, Galium ([3]; 125 g ai/ha): 85
- Plant response rating (scale 0 to 100), Chickweed [4, 21]: 10
- Plant response rating, Chickweed ([4]; 31 g ai/ha): 50
- Plant response rating, Chickweed ([4]; 62 g ai/ha): 85
- Plant response rating, Chickweed ([4]; 125 g ai/ha): 100
- Plant response rating (scale 0 to 100), Blackgrass [5, 21]: 0
- Plant response rating, Blackgrass ([5]; 31 g ai/ha): 0
- Plant response rating, Blackgrass ([5]; 62 g ai/ha): 10
- Plant response rating, Blackgrass ([5]; 125 g ai/ha): 20
- Plant response rating (scale 0 to 100), Oilseed Rape [6, 21]: 0
- Plant response rating, Oilseed Rape ([6]; 62 g ai/ha): 35
- Plant response rating, Oilseed Rape ([6]; 125 g ai/ha): 65
- Plant response rating, Galium ([7]; Postemergence, 16 g ai/ha): 55
- Galium plant response rating ([7]; Postemergence, 31 g ai/ha): 65
- Galium plant response rating ([7]; Postemergence, 125 g ai/ha): 65
- Galium plant response rating ([7]; postemergence, 62 g ai/ha): 65
- Plant response rating, Chickweed ([8]; Postemergence, 16 g ai/ha): 20
- Chickweed plant response rating ([8]; Postemergence, 31 g ai/ha): 35
- Chickweed plant response rating ([8]; Postemergence, 125 g ai/ha): 65
- Chickweed plant response rating ([8]; postemergence, 62 g ai/ha): 35
- Plant response rating, Bluegrass ([9]; Postemergence, 16 g ai/ha): 5
- Bluegrass plant response rating ([9]; Postemergence, 31 g ai/ha): 15
- Bluegrass plant response rating ([9]; Postemergence, 125 g ai/ha): 25
- Bluegrass plant response rating ([9]; postemergence, 62 g ai/ha): 15
- Plant response rating (scale 0 to 100), Field Poppy [10, 21]: 10
- Plant response rating, Field Poppy ([10]; 62 g ai/ha): 55
- Plant response rating, Field Poppy ([10]; 125 g ai/ha): 100
- Plant response rating, Wheat, Winter ([11]; Postemergence, 16 g ai/ha): 5
- Wheat, Winter plant response rating ([11]; Postemergence, 31 g ai/ha): 5
- Wheat, Winter plant response rating ([11]; Postemergence, 125 g ai/ha): 15
- Wheat, Winter plant response rating ([11]; postemergence, 62 g ai/ha): 5
- Plant response rating, Wheat, Spring ([12]; Postemergence, 16 g ai/ha): 0
- Wheat, Spring plant response rating ([12]; Postemergence, 31 g ai/ha): 0
- Wheat, Spring plant response rating ([12]; Postemergence, 125 g ai/ha): 0
- Wheat, Spring plant response rating ([12]; postemergence, 62 g ai/ha): 0
- Plant response rating, Foxtail, Green ([13]; Postemergence, 16 g ai/ha): 10
- Foxtail, Green plant response rating ([13]; Postemergence, 31 g ai/ha): 20
- Foxtail, Green plant response rating ([13]; Postemergence, 125 g ai/ha): 35
- Foxtail, Green plant response rating ([13]; postemergence, 62 g ai/ha): 20
- Plant response rating (scale 0 to 100), Ryegrass, Italian [14, 21]: 0
- Plant response rating, Ryegrass, Italian ([14]; 62 g ai/ha): 25
- Plant response rating, Ryegrass, Italian ([14]; 125 g ai/ha): 30
- Plant response rating, Bromegrass, Downy ([15]; Postemergence, 16 g ai/ha): 10
- Bromegrass, Downy plant response rating ([15]; Postemergence, 31 g ai/ha): 25
- Bromegrass, Downy plant response rating ([15]; Postemergence, 125 g ai/ha): 30
- Bromegrass, Downy plant response rating ([15]; postemergence, 62 g ai/ha): 25
- Plant response rating (scale 0 to 100), Bluegrass [16, 21]: 0
- Plant response rating, Bluegrass ([16]; 31 g ai/ha): 0
- Plant response rating, Bluegrass ([16]; 62 g ai/ha): 10
- Plant response rating, Bluegrass ([16]; 125 g ai/ha): 20
- Plant response rating, Blackgrass ([17]; Postemergence, 16 g ai/ha): 5
- Blackgrass plant response rating ([17]; Postemergence, 31 g ai/ha): 15
- Blackgrass plant response rating ([17]; Postemergence, 125 g ai/ha): 20
- Blackgrass plant response rating ([17]; postemergence, 62 g ai/ha): 15
- Plant response rating, Field Poppy ([18]; Postemergence, 16 g ai/ha): 45
- Field Poppy plant response rating ([18]; Postemergence, 31 g ai/ha): 50
- Field Poppy plant response rating ([18]; Postemergence, 125 g ai/ha): 65
- Field Poppy plant response rating ([18]; postemergence, 62 g ai/ha): 50
- Plant response rating, Oilseed Rape ([19]; Postemergence, 16 g ai/ha): 20
- Oilseed Rape plant response rating ([19]; Postemergence, 31 g ai/ha): 40
- Oilseed Rape plant response rating ([19]; Postemergence, 125 g ai/ha): 55
- Oilseed Rape plant response rating ([19]; postemergence, 62 g ai/ha): 40
- Plant response rating (scale 0 to 100), Oat, Wild [20, 21]: 0
- Plant response rating, Oat, Wild ([20]; 62 g ai/ha): 10
- Plant response rating, Oat, Wild ([20]; 125 g ai/ha): 40
